# What was measured:
# FLT1 = target: T1, FLT1 (Homo sapiens, UniProt P17948); test: KINOMEscan at 1 μM, FLT1; type: binding; details: 1000 nM, read-out: Percent Control
# T1 construct: purchased Eurofins DiscoverX KINOMEscan
# Text: (§1) Supplement cells-12-00287-s001.zip/File S2. KinomeScan data for the CAMKK2 probe and negative control.xlsx, sheet "SGC-CAMKK2-1N" | column: Percent Control
# PRKCH = target: T2, PRKCH (Homo sapiens, UniProt P24723); test: KINOMEscan at 1 μM, PRKCH; type: binding; details: 1000 nM, read-out: Percent Control
# T2 construct: purchased Eurofins DiscoverX KINOMEscan
# Text: as §1
# MST3 = target: T3, MST3 (Homo sapiens, UniProt Q9Y6E0); test: KINOMEscan binding assay at 1 μM, MST3; details: Compound Concentration 1000 nM; read-out: Percent Control
# T3 construct: purchased Eurofins DiscoverX KINOMEscan
# Text: as §1
# PIK3CA(H1047Y) = target: T4, PIK3CA(H1047Y) (Homo sapiens, UniProt P42336, H1047Y); test: KINOMEscan at 1 μM, PIK3CA(H1047Y); type: binding; details: 1000 nM, read-out: Percent Control
# T4 construct: purchased Eurofins DiscoverX KINOMEscan
# Text: as §1
# [1] = target: T5, RSK1(Kin.Dom.1-N-terminal) (Homo sapiens, UniProt Q15418); test: KINOMEscan at 1 μM, RSK1(Kin.Dom.1-N-terminal); type: binding; details: 1000 nM, read-out: Percent Control
# T5 construct: RSK1(Kin.Dom.1-N-terminal); purchased Eurofins DiscoverX KINOMEscan
# Text: as §1
# EPHB3 = target: T6, EPHB3 (Homo sapiens, UniProt P54753); test: KINOMEscan at 1 μM, EPHB3; type: binding; details: 1000 nM, read-out: Percent Control
# T6 construct: purchased Eurofins DiscoverX KINOMEscan
# Text: as §1
# [2] = target: T7, ABL1(H396P)-phosphorylated (Homo sapiens, UniProt P00519, H396P); test: KINOMEscan at 1 μM, ABL1(H396P)-phosphorylated; type: binding; details: 1000 nM, read-out: Percent Control
# T7 construct: purchased Eurofins DiscoverX KINOMEscan
# Text: as §1
# FYN [3] = target: T8, FYN (Homo sapiens, UniProt P06241); test: KINOMEscan at 1 μM, FYN; type: binding; details: 1000 nM, read-out: Percent Control
# T8 construct: purchased Eurofins DiscoverX KINOMEscan
# Text: as §1
# EGFR = target: T9, EGFR (Homo sapiens, UniProt P00533); test: KINOMEscan at 1 μM, EGFR; type: binding; details: 1000 nM, read-out: Percent Control
# T9 construct: purchased Eurofins DiscoverX KINOMEscan
# Text: as §1
# EPHA5 = target: T10, EPHA5 (Homo sapiens, UniProt P54756); test: KINOMEscan binding assay at 1 μM, EPHA5; details: Compound Concentration 1000 nM; read-out: Percent Control
# T10 construct: purchased Eurofins DiscoverX KINOMEscan
# Text: as §1
# NDR2 = target: T11, NDR2 (Homo sapiens, UniProt Q9Y2H1); test: KINOMEscan at 1 μM, NDR2; type: binding; details: 1000 nM, read-out: Percent Control
# T11 construct: purchased Eurofins DiscoverX KINOMEscan
# Text: as §1
# NEK7 = target: T12, NEK7 (Homo sapiens, UniProt Q8TDX7); test: KINOMEscan at 1 μM, NEK7; type: binding; details: 1000 nM, read-out: Percent Control
# T12 construct: purchased Eurofins DiscoverX KINOMEscan
# Text: as §1
# CSF1R-autoinhibited = target: T13, CSF1R-autoinhibited (Homo sapiens, UniProt P07333); test: KINOMEscan at 1 μM, CSF1R-autoinhibited; type: binding; details: 1000 nM, read-out: Percent Control
# T13 construct: purchased Eurofins DiscoverX KINOMEscan
# Text: as §1
# FLT3(D835Y) = target: T14, FLT3(D835Y) (Homo sapiens, UniProt P36888, D835Y); test: KINOMEscan binding assay at 1 μM, FLT3(D835Y); details: Compound Concentration 1000 nM; read-out: Percent Control
# T14 construct: purchased Eurofins DiscoverX KINOMEscan
# Text: as §1
# BUB1 = target: T15, BUB1 (Homo sapiens, UniProt O43683); test: KINOMEscan at 1 μM, BUB1; type: binding; details: 1000 nM, read-out: Percent Control
# T15 construct: purchased Eurofins DiscoverX KINOMEscan
# Text: as §1
# MEK3 = target: T16, MEK3 (Homo sapiens, UniProt P46734); test: KINOMEscan at 1 μM, MEK3; type: binding; details: 1000 nM, read-out: Percent Control
# T16 construct: purchased Eurofins DiscoverX KINOMEscan
# Text: as §1
# PIKFYVE = target: T17, PIKFYVE (Homo sapiens, UniProt Q9Y2I7); test: KINOMEscan 1 μM, PIKFYVE; type: binding; details: 1000 nM; Entrez PIKFYVE; read-out: Percent Control
# T17 construct: purchased Eurofins DiscoverX KINOMEscan
# Text: (§2) Supplement cells-12-00287-s001.zip/File S2. KinomeScan data for the CAMKK2 probe and negative control.xlsx, sheet "SGC-CAMKK2-1" | column: Percent Control
# TRKA = target: T18, TRKA (Homo sapiens, UniProt P04629); test: DiscoverX KINOMEscan binding assay at 1 μM, TRKA; details: TRKA (NTRK1); Compound Concentration 1000 nM; read-out: Percent Control
# T18 construct: purchased Eurofins DiscoverX KINOMEscan
# Text: as §2
# RIPK4 = target: T19, RIPK4 (Homo sapiens, UniProt P57078); test: DiscoverX KINOMEscan binding assay at 1 μM, RIPK4; details: Compound Concentration 1000 nM, read-out: Percent Control
# T19 construct: purchased Eurofins DiscoverX KINOMEscan
# Text: as §2
# WNK2 = target: T20, WNK2 (Homo sapiens, UniProt Q9Y3S1); test: KINOMEscan 1 μM, WNK2; type: binding; details: 1000 nM; Entrez WNK2; read-out: Percent Control
# T20 construct: purchased Eurofins DiscoverX KINOMEscan
# Text: as §2
# CLK4 = target: T21, CLK4 (Homo sapiens, UniProt Q9HAZ1); test: KINOMEscan 1 μM, CLK4; type: binding; details: 1000 nM; Entrez CLK4; read-out: Percent Control
# T21 construct: purchased Eurofins DiscoverX KINOMEscan
# Text: as §2
# PRKX = target: T22, PRKX (Homo sapiens, UniProt P51817); test: KINOMEscan 1 μM, PRKX; type: binding; details: 1000 nM; Entrez PRKX; read-out: Percent Control
# T22 construct: purchased Eurofins DiscoverX KINOMEscan
# Text: as §2
# [4] = target: T23, ABL1(Q252H)-phosphorylated (Homo sapiens, UniProt P00519, Q252H); test: KINOMEscan 1 μM, ABL1(Q252H)-phosphorylated; type: binding; details: 1000 nM; Entrez ABL1; read-out: Percent Control
# T23 construct: purchased Eurofins DiscoverX KINOMEscan
# Text: as §2
# GRK1 = target: T24, GRK1 (Homo sapiens, UniProt Q15835); test: KINOMEscan 1 μM, GRK1; type: binding; details: 1000 nM; Entrez GRK1; read-out: Percent Control
# T24 construct: purchased Eurofins DiscoverX KINOMEscan
# Text: as §2
# DAPK1 = target: T25, DAPK1 (Homo sapiens, UniProt P53355); test: KINOMEscan 1 μM, DAPK1; type: binding; details: 1000 nM; Entrez DAPK1; read-out: Percent Control
# T25 construct: purchased Eurofins DiscoverX KINOMEscan
# Text: as §2
# MEK1 = target: T26, MEK1 (Homo sapiens, UniProt Q02750); test: KINOMEscan 1 μM, MEK1; type: binding; details: 1000 nM; Entrez MAP2K1; read-out: Percent Control
# T26 construct: purchased Eurofins DiscoverX KINOMEscan
# Text: as §2
# MYLK = target: T27, MYLK (Homo sapiens, UniProt Q15746); test: KINOMEscan 1 μM, MYLK; type: binding; details: 1000 nM; Entrez MYLK; read-out: Percent Control
# T27 construct: purchased Eurofins DiscoverX KINOMEscan
# Text: as §2
# FYN [5] = target: T8, FYN; test: KINOMEscan 1 μM, FYN; type: binding; details: 1000 nM; Entrez FYN; read-out: Percent Control
# Text: as §2
# CAMK1 = target: T28, CAMK1 (Homo sapiens, UniProt Q14012); test: KINOMEscan 1 μM, CAMK1; type: binding; details: 1000 nM; Entrez CAMK1; read-out: Percent Control
# T28 construct: purchased Eurofins DiscoverX KINOMEscan
# Text: as §2
# ERBB3 = target: T29, ERBB3 (Homo sapiens, UniProt P21860); test: KINOMEscan 1 μM, ERBB3; type: binding; details: 1000 nM; Entrez ERBB3; read-out: Percent Control
# T29 construct: purchased Eurofins DiscoverX KINOMEscan
# Text: as §2
# PAK3 = target: T30, PAK3 (Homo sapiens, UniProt O75914); test: DiscoverX KINOMEscan binding assay at 1 μM, PAK3; details: Compound Concentration 1000 nM, read-out: Percent Control
# T30 construct: purchased Eurofins DiscoverX KINOMEscan
# Text: as §2
# MKNK2 = target: T31, MKNK2 (Homo sapiens, UniProt Q9HBH9); test: KINOMEscan 1 μM, MKNK2; type: binding; details: 1000 nM; Entrez MKNK2; read-out: Percent Control
# T31 construct: purchased Eurofins DiscoverX KINOMEscan
# Text: as §2
# AMPK-alpha2 = target: T32, AMPK-alpha2 (Homo sapiens, UniProt P54646); test: KINOMEscan 1 μM, AMPK-alpha2; type: binding; details: 1000 nM; Entrez PRKAA2; read-out: Percent Control
# T32 construct: purchased Eurofins DiscoverX KINOMEscan
# Text: as §2
# T8 sequence (P06241 whole entry): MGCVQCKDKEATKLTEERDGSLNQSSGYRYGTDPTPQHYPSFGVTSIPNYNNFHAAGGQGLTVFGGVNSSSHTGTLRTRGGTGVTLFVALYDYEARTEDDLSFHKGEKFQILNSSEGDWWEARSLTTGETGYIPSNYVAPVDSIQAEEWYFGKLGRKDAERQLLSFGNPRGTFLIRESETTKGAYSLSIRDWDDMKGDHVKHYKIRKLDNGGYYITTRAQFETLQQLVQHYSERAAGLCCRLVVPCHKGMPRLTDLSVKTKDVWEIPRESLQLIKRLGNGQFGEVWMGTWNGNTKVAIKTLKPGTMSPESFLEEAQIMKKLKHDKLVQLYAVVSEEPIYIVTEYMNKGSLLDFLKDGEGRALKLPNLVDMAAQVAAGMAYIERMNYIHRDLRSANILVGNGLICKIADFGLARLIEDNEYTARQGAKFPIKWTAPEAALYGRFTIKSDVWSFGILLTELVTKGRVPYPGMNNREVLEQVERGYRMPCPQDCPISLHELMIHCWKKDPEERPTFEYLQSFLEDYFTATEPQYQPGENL
# T12 sequence (Q8TDX7 whole entry): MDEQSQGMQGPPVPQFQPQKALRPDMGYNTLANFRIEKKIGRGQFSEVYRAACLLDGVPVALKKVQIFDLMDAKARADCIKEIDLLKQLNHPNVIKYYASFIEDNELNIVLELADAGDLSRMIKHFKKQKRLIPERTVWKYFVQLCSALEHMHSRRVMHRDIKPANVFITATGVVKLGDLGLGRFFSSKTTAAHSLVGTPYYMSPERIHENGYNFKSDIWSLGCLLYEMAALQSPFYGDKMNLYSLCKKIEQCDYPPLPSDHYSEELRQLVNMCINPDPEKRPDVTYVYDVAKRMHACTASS
# T28 sequence (Q14012 whole entry): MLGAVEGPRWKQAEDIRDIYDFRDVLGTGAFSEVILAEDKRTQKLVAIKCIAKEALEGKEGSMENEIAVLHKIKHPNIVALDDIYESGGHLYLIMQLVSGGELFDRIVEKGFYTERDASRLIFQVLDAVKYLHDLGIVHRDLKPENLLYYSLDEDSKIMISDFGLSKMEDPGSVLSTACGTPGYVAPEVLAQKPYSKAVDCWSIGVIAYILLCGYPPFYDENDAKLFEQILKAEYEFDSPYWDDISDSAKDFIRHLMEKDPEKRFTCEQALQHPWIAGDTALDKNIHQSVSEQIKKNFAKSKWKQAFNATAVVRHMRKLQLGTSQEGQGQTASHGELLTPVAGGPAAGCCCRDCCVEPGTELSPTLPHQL
# T30 sequence (O75914 whole entry): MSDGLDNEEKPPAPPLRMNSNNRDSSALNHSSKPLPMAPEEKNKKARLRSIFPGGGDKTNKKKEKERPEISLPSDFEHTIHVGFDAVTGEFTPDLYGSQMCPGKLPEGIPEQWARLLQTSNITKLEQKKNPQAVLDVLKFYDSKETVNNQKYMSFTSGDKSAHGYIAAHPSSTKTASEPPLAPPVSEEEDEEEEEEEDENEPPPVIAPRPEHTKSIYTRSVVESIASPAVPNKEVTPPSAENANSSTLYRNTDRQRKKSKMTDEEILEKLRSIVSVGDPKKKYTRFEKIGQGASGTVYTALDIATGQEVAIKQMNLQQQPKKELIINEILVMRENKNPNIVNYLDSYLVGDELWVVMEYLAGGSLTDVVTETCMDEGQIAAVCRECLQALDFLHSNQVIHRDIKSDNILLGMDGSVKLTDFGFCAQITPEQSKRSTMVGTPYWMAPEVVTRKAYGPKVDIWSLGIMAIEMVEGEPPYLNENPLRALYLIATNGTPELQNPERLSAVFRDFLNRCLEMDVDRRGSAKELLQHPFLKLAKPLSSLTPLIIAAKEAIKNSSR
# T6 sequence (P54753 34-998): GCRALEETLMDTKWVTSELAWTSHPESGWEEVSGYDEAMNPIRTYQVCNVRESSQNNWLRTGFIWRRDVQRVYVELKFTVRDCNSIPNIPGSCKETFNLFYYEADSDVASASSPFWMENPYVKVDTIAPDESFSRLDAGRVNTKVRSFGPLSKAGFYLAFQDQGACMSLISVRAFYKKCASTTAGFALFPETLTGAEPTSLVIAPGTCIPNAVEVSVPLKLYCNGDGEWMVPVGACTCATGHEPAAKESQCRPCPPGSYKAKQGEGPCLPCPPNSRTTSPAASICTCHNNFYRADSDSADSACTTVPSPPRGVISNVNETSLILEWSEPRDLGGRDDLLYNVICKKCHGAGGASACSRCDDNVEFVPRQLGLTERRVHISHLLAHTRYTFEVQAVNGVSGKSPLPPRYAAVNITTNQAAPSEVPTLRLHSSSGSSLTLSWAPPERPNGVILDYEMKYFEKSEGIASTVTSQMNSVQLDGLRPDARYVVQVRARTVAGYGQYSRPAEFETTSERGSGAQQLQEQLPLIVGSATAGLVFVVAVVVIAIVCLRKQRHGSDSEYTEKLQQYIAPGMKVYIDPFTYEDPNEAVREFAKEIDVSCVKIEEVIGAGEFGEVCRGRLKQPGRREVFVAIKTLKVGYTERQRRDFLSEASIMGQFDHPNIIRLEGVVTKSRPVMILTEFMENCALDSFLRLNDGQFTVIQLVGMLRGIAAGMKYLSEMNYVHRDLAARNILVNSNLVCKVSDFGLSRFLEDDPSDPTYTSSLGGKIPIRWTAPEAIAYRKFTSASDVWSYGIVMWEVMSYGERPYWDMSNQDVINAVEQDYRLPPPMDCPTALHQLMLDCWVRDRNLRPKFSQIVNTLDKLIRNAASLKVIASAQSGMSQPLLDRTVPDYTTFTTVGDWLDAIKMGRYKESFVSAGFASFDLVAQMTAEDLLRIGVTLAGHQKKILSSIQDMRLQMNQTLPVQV
# T31 sequence (Q9HBH9 whole entry): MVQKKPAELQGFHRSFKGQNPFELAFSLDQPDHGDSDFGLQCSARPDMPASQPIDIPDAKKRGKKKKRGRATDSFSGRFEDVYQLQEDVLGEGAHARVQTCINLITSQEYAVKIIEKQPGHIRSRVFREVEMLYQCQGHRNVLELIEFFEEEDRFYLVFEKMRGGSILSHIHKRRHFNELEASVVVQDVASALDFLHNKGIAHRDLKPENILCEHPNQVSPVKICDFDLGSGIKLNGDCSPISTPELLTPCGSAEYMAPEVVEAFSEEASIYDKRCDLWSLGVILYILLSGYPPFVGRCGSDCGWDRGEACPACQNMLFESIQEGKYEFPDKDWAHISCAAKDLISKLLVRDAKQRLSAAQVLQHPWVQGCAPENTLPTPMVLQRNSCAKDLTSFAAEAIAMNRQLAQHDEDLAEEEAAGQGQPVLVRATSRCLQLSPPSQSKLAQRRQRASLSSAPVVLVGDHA
# T29 sequence (P21860 20-1342): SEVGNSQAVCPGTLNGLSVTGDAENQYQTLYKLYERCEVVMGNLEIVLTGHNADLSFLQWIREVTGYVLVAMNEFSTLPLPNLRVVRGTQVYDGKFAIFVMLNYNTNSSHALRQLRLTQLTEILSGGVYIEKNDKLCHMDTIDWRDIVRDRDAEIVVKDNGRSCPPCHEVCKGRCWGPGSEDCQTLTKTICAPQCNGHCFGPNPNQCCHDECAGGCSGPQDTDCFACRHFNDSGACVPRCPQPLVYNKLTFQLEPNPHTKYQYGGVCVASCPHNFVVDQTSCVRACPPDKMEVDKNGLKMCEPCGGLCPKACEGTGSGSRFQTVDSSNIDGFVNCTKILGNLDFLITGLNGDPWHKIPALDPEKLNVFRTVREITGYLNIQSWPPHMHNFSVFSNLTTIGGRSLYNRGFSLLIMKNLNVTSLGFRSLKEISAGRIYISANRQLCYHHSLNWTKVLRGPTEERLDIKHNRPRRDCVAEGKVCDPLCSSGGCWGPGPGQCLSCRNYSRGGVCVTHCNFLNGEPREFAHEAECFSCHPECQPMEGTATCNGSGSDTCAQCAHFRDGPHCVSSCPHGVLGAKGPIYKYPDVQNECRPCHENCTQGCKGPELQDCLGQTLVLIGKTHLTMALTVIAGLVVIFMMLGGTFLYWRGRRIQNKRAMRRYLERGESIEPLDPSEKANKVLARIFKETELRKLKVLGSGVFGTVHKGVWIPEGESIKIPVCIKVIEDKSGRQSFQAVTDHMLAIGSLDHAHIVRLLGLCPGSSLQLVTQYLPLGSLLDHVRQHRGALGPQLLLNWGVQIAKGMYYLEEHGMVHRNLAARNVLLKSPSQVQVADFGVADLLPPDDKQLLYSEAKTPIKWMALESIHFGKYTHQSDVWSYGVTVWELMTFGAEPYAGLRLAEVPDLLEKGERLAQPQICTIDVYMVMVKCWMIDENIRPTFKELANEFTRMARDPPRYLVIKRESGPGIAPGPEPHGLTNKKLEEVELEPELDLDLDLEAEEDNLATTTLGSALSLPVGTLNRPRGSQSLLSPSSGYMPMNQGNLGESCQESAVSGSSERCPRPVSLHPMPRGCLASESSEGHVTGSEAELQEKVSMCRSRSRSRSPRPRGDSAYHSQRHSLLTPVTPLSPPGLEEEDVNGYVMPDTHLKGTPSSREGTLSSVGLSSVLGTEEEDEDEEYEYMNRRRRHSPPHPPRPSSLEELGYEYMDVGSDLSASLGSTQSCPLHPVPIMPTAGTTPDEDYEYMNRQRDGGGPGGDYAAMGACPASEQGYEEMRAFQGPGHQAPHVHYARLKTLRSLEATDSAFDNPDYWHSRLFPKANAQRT
# T21 sequence (Q9HAZ1 whole entry): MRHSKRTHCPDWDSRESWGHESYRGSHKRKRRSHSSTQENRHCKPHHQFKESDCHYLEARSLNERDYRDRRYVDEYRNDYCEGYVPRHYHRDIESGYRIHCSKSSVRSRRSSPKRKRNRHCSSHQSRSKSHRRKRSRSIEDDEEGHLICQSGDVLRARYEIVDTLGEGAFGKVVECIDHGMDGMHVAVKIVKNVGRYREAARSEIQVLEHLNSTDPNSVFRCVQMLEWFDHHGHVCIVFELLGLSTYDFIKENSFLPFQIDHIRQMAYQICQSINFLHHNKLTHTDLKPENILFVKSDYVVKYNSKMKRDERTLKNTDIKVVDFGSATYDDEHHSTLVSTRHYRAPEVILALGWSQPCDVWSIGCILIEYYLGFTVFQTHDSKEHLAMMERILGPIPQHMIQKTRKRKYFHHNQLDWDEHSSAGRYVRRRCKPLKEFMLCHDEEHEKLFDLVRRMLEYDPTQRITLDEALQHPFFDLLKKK
smiles,measurement,setting,value
O=C(O)c1ccc(-c2coc3ncc(-c4ccccc4)cc23)cc1Cl [SGC-CAMKK2-1N (UNC-YL-83)],remaining binding at 1 µM,FLT1,76%
same,remaining binding at 1 µM,PRKCH,94%
same,remaining binding at 1 µM,MST3,100%
same,remaining binding at 1 µM,PIK3CA(H1047Y),59%
same,remaining binding at 1 µM,[1],99%
same,remaining binding at 1 µM,EPHB3,53%
same,remaining binding at 1 µM,[2],74%
same,remaining binding at 1 µM,FYN [3],80%
same,remaining binding at 1 µM,EGFR,100%
same,remaining binding at 1 µM,EPHA5,100%
same,remaining binding at 1 µM,NDR2,76%
same,remaining binding at 1 µM,NEK7,78%
same,remaining binding at 1 µM,CSF1R-autoinhibited,89%
same,remaining binding at 1 µM,FLT3(D835Y),100%
same,remaining binding at 1 µM,BUB1,79%
same,remaining binding at 1 µM,MEK3,89%
Cc1cccc(-c2cnc3occ(-c4ccc(C(=O)O)c(C5CCCC5)c4)c3c2)c1 [SGC-CAMKK2-1 (YL-36)],remaining binding at 1 µM,PIKFYVE,80%
same,remaining binding at 1 µM,TRKA,100%
same,remaining binding at 1 µM,RIPK4,100%
same,remaining binding at 1 µM,WNK2,67%
same,remaining binding at 1 µM,CLK4,100%
same,remaining binding at 1 µM,PRKX,79%
same,remaining binding at 1 µM,[4],96%
same,remaining binding at 1 µM,GRK1,100%
same,remaining binding at 1 µM,DAPK1,100%
same,remaining binding at 1 µM,MEK1,100%
same,remaining binding at 1 µM,MYLK,76%
same,remaining binding at 1 µM,FYN [5],86%
same,remaining binding at 1 µM,CAMK1,89%
same,remaining binding at 1 µM,ERBB3,86%
same,remaining binding at 1 µM,PAK3,100%
same,remaining binding at 1 µM,MKNK2,100%
same,remaining binding at 1 µM,AMPK-alpha2,100%

# From PMC9856672, “SGC-CAMKK2-1: A Chemical Probe for CAMKK2” (Cells, 2023)
